Test results published in publication PMC6991140 (Journal of the American Chemical Society, 2017).

Target: T1, asialoglycoprotein receptor (ASGPR) (Homo sapiens, UniProt P07306)
T1 sequence (P07306 1-291): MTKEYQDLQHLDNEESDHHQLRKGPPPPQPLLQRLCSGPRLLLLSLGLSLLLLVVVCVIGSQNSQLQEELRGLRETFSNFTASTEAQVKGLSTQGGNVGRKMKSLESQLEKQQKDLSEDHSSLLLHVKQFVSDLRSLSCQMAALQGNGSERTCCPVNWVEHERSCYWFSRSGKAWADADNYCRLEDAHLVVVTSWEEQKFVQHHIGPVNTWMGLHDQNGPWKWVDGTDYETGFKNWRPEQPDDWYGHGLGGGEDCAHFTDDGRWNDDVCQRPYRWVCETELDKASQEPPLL
Assay: Surface plasmon resonance binding to immobilized ASGPR
Settings: calculated from 1/Kads

calculated ligand efficiency (LE): 0.41
SMILES: CC(=O)N[C@H]1C(O)O[C@H](CO)[C@H](O)[C@@H]1O (mixture of isomers) [GalNAc, N-acetylgalactosamine]
